Experimental data reported in patent US12686692B2, “KRas G12D inhibitors” (Mirati Therapeutics, Inc., priority 2020, dated 2026).

How the values were obtained:
[1] = target: T1, KRas G12D (Homo sapiens, UniProt P01116, G12D); experiment: KRas G12D Surface Plasmon Resonance (SPR) Binding Assay; conditions: Biacore T200, biotinylated Avidin-tagged KRAS protein on SA chip, 20 C, 1:1 binding model
Procedure, shortened: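 Biotinylated Avi-tagged KRAS G12D was captured on a streptavidin chip; compounds were injected as 3-fold dilution series in HBS-Mg buffer, pH 7.5, with DMSO at 20 C (60 s contact, 120 s dissociation). Binding constants came from 1:1 model fits.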
Target sequence in this assay (P01116 1-188 isoform P01116-2 G12D): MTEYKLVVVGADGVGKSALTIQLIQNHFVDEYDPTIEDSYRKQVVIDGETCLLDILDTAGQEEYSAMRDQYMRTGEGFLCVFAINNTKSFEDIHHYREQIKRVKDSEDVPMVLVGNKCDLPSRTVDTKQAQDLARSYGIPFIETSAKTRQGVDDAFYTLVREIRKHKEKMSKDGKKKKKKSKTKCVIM

[2] = test system: KRas G12D-mediated Phosphorylation of ERK; experiment: Inhibition of KRas G12D-mediated Phosphorylation of ERK in AGS cells; type: cell-based; conditions: Homo sapiens; AGS cells expressing G12D, 3 hours, phospho-ERK normalized to GAPDH
Procedure, shortened: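 AGS cells (endogenous KRas G12D) were treated with compounds for 3 h in 0.5% DMSO, then fixed, permeabilized and immunostained. The phospho-ERK (Thr202/Tyr204) signal was normalized to GAPDH in-cell by infrared detection and expressed as % of DMSO control. IC50 came from a 4-parameter fit.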

[3] = target: T1, KRas G12D; experiment: KRas G12D Binding Assay (TR-FRET displacement of labeled tracer); set-up: corresponding to amino acids 1:169, produced at Array BioPharma; biotin (protein is biotinylated); conditions: TR-FRET displacement of Cy5 labelled tracer, biotinylated GDP-loaded KRAS G12D (aa 1:169), 60 minute incubation at 22° C.
Procedure, shortened: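 Biotinylated GDP-loaded human KRAS G12D (aa 1–169) incubated with Cy5 tracer, Eu-streptavidin and compound (2% DMSO final) in 50 mM HEPES pH 7.5, 5 mM MgCl2, 0.005% Tween-20, 1 mM DTT, 60 min at 22 °C. TR-FRET ratio converted to percent of control; IC50 at 50 POC from 4-parameter logistic fit.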
Target sequence in this assay (P01116 1-169 isoform P01116-2 G12D): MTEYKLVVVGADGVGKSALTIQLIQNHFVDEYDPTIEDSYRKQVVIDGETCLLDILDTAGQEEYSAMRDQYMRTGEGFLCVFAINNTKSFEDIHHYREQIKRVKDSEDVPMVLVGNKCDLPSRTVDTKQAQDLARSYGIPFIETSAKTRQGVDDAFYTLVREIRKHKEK

SMILES | Kd [1] | IC50 [2] | IC50 [3]
CN1CCC[C@H]1COc1nc2c(c(N3C[C@@H]4C[C@H](O)[C@H](C3)N4)n1)CCN(c1cc(O)cc3ccccc13)C2 (single isomer, unassigned) [Example 55] | 38.7 µM | 4.88 µM | 0.775 µM
C[C@@H]1CC2CN(c3nc(OC[C@@H]4CCCN4C)nc4c3CCN(c3cccc5cccc(Cl)c35)C4)C[C@H]1N2 (single isomer, unassigned) [Example 87] | 0.705 µM | 13.4 µM | 0.271 µM
CN1CCC[C@H]1COc1nc2c(c(N3C[C@H]4CC[C@@H](C3)N4)n1)CCN(c1cc(O)cc3ccccc13)C2 [Example 1, 4-(4-((1R,5S)-3,8-diazabicyclo[3.2.1]octan-3-yl)-2-(((S)-1-methylpyrrolidin-2-yl)methoxy)-5,8-dihydropyrido[3,4-d]pyrimidin-7(6H)-yl)naphthalen-2-ol] | 0.11 µM | 2.35 µM | 0.0489 µM
CN1CCC[C@H]1COc1nc2c(c(N3C[C@H]4CC[C@@H](C3)N4)n1)CCN(c1cccc3cccc(Cl)c13)C2 [Example 2, 4-((1R,5S)-3,8-diazabicyclo[3.2.1]octan-3-yl)-7-(8-chloronaphthalen-1-yl)-2-(((S)-1-methylpyrrolidin-2-yl)methoxy)-5,6,7,8-tetrahydropyrido[3,4-d]pyrimidine] | 0.163 µM | 16.1 µM | 0.267 µM
CN1CCC[C@H]1COc1nc2c(c(N3C[C@H]4CC[C@@H](C3)N4)n1)CCN(c1cc(O)c(Cl)c3ccccc13)C2 [Example 24, 4-(4-((1R,5S)-3,8-diazabicyclo[3.2.1]octan-3-yl)-2-(((S)-1-methylpyrrolidin-2-yl)methoxy)-5,8-dihydropyrido[3,4-d]pyrimidin-7(6H)-yl)-1-chloronaphthalen-2-ol] | 0.0377 µM | > 16.7 µM | 1.36 µM
Oc1cc(N2CCc3c(nc(OC[C@@H]4CCCN4)nc3N3C[C@H]4CC[C@@H](C3)N4)C2)c2ccccc2c1Cl [Example 27, 4-(4-((1R,5S)-3,8-diazabicyclo[3.2.1]octan-3-yl)-2-(((S)-pyrrolidin-2-yl)methoxy)-5,8-dihydropyrido[3,4-d]pyrimidin-7(6H)-yl)-1-chloronaphthalen-2-ol] | 0.0913 µM | 11.1 µM | 1.6 µM
CN1CCC[C@H]1COc1nc2c(c(N3C[C@H]4CC[C@@H](C3)N4)n1)CCN(c1cc(O)cc3cccc(Cl)c13)C2 [Example 28, 4-(4-((1R,5S)-3,8-diazabicyclo[3.2.1]octan-3-yl)-2-(((S)-1-methylpyrrolidin-2-yl)methoxy)-5,8-dihydropyrido[3,4-d]pyrimidin-7(6H)-yl)-5-chloronaphthalen-2-ol] | > 1000 µM | 0.361 µM | 0.0012 µM
Clc1cccc2cccc(N3CCc4c(nc(OCC56CCCN5CCC6)nc4N4C[C@H]5CC[C@@H](C4)N5)C3)c12 [Example 29, 4-((1R,5S)-3,8-diazabicyclo[3.2.1]octan-3-yl)-7-(8-chloronaphthalen-1-yl)-2-((tetrahydro-1H-pyrrolizin-7a(5H)-yl)methoxy)-5,6,7,8-tetrahydropyrido[3,4-d]pyrimidine] | 0.0063 µM | 4.05 µM | 0.0025 µM
Clc1cccc2cncc(N3CCc4c(nc(OCC56CCCN5CCC6)nc4N4C[C@H]5CC[C@@H](C4)N5)C3)c12 [Example 30, 4-((1R,5S)-3,8-diazabicyclo[3.2.1]octan-3-yl)-7-(5-chloroisoquinolin-4-yl)-2-((tetrahydro-1H-pyrrolizin-7a(5H)-yl)methoxy)-5,6,7,8-tetrahydropyrido[3,4-d]pyrimidine] | 0.0871 µM | 2.61 µM | 0.0168 µM
Oc1cc(N2CCc3c(nc(OCC45CCCN4CCC5)nc3N3C[C@H]4CC[C@@H](C3)N4)C2)c2ccccc2c1 [Example 31, 4-(4-((1R,5S)-3,8-diazabicyclo[3.2.1]octan-3-yl)-2-((tetrahydro-1H-pyrrolizin-7a(5H)-yl)methoxy)-5,8-dihydropyrido[3,4-d]pyrimidin-7(6H)-yl)naphthalen-2-ol] | 0.0008 µM | 1.61 µM | 0.0038 µM
CO[C@@H]1C[C@@H]2CN(c3nc(OC[C@@H]4CCCN4C)nc4c3CCN(c3cc(O)cc5ccccc35)C4)C[C@H]1N2 [Example 37, 4-(4-((1R,5R,6R)-6-methoxy-3,8-diazabicyclo[3.2.1]octan-3-yl)-2-(((S)-1-methylpyrrolidin-2-yl)methoxy)-5,8-dihydropyrido[3,4-d]pyrimidin-7(6H)-yl)naphthalen-2-ol] | 12.8 µM | 3.85 µM | 0.0881 µM
CN1CCC[C@H]1COc1nc2c(c(N3CC4CC(F)C(C3)N4)n1)CCN(c1cc(O)cc3ccccc13)C2 (stereo partly drawn) [Example 38, 4-(4-(6-fluoro-3,8-diazabicyclo[3.2.1]octan-3-yl)-2-(((S)-1-methylpyrrolidin-2-yl)methoxy)-5,8-dihydropyrido[3,4-d]pyrimidin-7(6H)-yl)naphthalen-2-ol] | 2.34 µM | 5 µM | 0.0735 µM
CN1CCC[C@H]1COc1nc2c(c(N3C[C@H]4C[C@@H](CC#N)[C@@H](C3)N4)n1)CCN(c1cccc3cccc(Cl)c13)C2 [Example 40, 2-((1R,5S,6S)-3-(7-(8-chloronaphthalen-1-yl)-2-(((S)-1-methylpyrrolidin-2-yl)methoxy)-5,6,7,8-tetrahydropyrido[3,4-d]pyrimidin-4-yl)-3,8-diazabicyclo[3.2.1]octan-6-yl)acetonitrile] | 0.957 µM | > 16.7 µM | 0.0639 µM
Cc1cccc2cccc(N3CCc4c(nc(OC[C@@H]5CCCN5C)nc4N4C[C@H]5CC[C@@H](C4)N5)C3)c12 [Example 52, 4-((1R,5S)-3,8-diazabicyclo[3.2.1]octan-3-yl)-7-(8-methylnaphthalen-1-yl)-2-(((S)-1-methylpyrrolidin-2-yl)methoxy)-5,6,7,8-tetrahydropyrido[3,4-d]pyrimidine] | 250 µM | 14.9 µM | 0.361 µM
CN1CCC[C@H]1COc1nc2c(c(N3C[C@H]4CC[C@@H](C3)N4)n1)CCN(c1cc(C(F)F)cc3ccccc13)C2 [Example 56, 4-((1R,5S)-3,8-diazabicyclo[3.2.1]octan-3-yl)-7-(3-(difluoromethyl)naphthalen-1-yl)-2-(((S)-1-methylpyrrolidin-2-yl)methoxy)-5,6,7,8-tetrahydropyrido[3,4-d]pyrimidine] | 89.9 µM | > 16.7 µM | > 10 µM
CN1CCC[C@H]1COc1nc2c(c(N3C[C@H]4CC[C@@H](C3)N4)n1)CCN(c1cncc3cccc(Cl)c13)C2 [Example 58, 4-((1R,5S)-3,8-diazabicyclo[3.2.1]octan-3-yl)-7-(5-chloroisoquinolin-4-yl)-2-(((S)-1-methylpyrrolidin-2-yl)methoxy)-5,6,7,8-tetrahydropyrido[3,4-d]pyrimidine] | 0.438 µM | > 16.7 µM | 0.283 µM
CN1CCC[C@H]1COc1nc2c(c(N3CC4CCC(C)(C3)N4)n1)CCN(c1cc(O)cc3ccccc13)C2 (stereo partly drawn) [Example 61, 4-(4-(1-methyl-3,8-diazabicyclo[3.2.1]octan-3-yl)-2-(((S)-1-methylpyrrolidin-2-yl)methoxy)-5,8-dihydropyrido[3,4-d]pyrimidin-7(6H)-yl)naphthalen-2-ol] | 0.176 µM | 6.88 µM | 0.184 µM
Fc1ccc2cccc(N3CCc4c(nc(OCC56CCCN5CCC6)nc4N4C[C@H]5CC[C@@H](C4)N5)C3)c2c1Cl [Example 62, 4-((1R,5S)-3,8-diazabicyclo[3.2.1]octan-3-yl)-7-(8-chloro-7-fluoronaphthalen-1-yl)-2-((tetrahydro-1H-pyrrolizin-7a(5H)-yl)methoxy)-5,6,7,8-tetrahydropyrido[3,4-d]pyrimidine] | 0.0081 µM | 1.94 µM | 0.001 µM
FC(F)(F)c1c(Cl)cccc1N1CCc2c(nc(OCC34CCCN3CCC4)nc2N2C[C@H]3CC[C@@H](C2)N3)C1 [Example 63, 4-((1R,5S)-3,8-diazabicyclo[3.2.1]octan-3-yl)-7-(3-chloro-2-(trifluoromethyl)phenyl)-2-((tetrahydro-1H-pyrrolizin-7a(5H)-yl)methoxy)-5,6,7,8-tetrahydropyrido[3,4-d]pyrimidine] | 0.0123 µM | 6.58 µM | 0.0051 µM
Cc1cccc(N2CCc3c(nc(OCC45CCCN4CCC5)nc3N3C[C@H]4CC[C@@H](C3)N4)C2)c1C(F)(F)F [Example 64, 4-((1R,5S)-3,8-diazabicyclo[3.2.1]octan-3-yl)-7-(3-methyl-2-(trifluoromethyl)phenyl)-2-((tetrahydro-1H-pyrrolizin-7a(5H)-yl)methoxy)-5,6,7,8-tetrahydropyrido[3,4-d]pyrimidine] | 0.0673 µM | > 16.7 µM | 0.013 µM
CN1CCC[C@H]1COc1nc2c(c(N3C[C@H]4CC[C@@H](C3)N4)n1)CCN(c1cccc3ccc(F)c(Cl)c13)C2 [Example 65, 4-((1R,5S)-3,8-diazabicyclo[3.2.1]octan-3-yl)-7-(8-chloro-7-fluoronaphthalen-1-yl)-2-(((S)-1-methylpyrrolidin-2-yl)methoxy)-5,6,7,8-tetrahydropyrido[3,4-d]pyrimidine] | 0.0182 µM | > 16.7 µM | 0.0152 µM
